Data published in patent publication US8951580B2, “Methods for improving the safety of treating pediatric patients who are candidates for inhaled nitric oxide treatment” (priority 2009, dated 2015).

How the values were obtained:
[1] = system: pulmonary vasculature of children with pulmonary hypertension; assay: INOT22 study: acute pulmonary vasodilator testing during cardiac catheterization; conditions: iNO 80 ppm; for SVRI Change From Baseline, Mean / SVRI Change From Baseline, Median / SVRI Change From Baseline, Minimum / SVRI Change From Baseline, maximum / Ratio PVRI/SVRI Change from Baseline, Maximum / Ratio PVRI/SVRI Change from Baseline, Mean / Ratio PVRI/SVRI Change from Baseline, Median / Ratio PVRI/SVRI Change from Baseline, Minimum / Ratio PVRI/SVRI Percent Change from Baseline, Maximum / Ratio PVRI/SVRI Percent Change from Baseline, Mean / Ratio PVRI/SVRI Percent Change from Baseline, Median / Ratio PVRI/SVRI Percent Change from Baseline, Minimum / Ratio PVRI/SVRI Post Treatment, Maximum / Ratio PVRI/SVRI Post Treatment, Mean / Ratio PVRI/SVRI Post Treatment, Median / Ratio PVRI/SVRI Post Treatment, Minimum / SVRI Post-treatment, Mean / SVRI Post-treatment, Median / SVRI Post-treatment, Minimum / SVRI Post-treatment, maximum: ITT, each treatment 10 minutes; for SVRI Change From Baseline, Mean / SVRI Change From Baseline, Median / SVRI Change From Baseline, Minimum / SVRI Change From Baseline, maximum: baseline room air; for tolerability: INOT22 diagnostic study, children with pulmonary hypertension
Protocol: The INOT22 study, entitled “Comparison of supplemental oxygen and nitric oxide for inhalation plus oxygen in the evaluation of the reactivity of the pulmonary vasculature during acute pulmonary vasodilatory testing” was conducted both to assess the safety and effectiveness of INOmax® as a diagnostic agent in patients undergoing assessment of pulmonary hypertension (primary endpoint), and to confirm the hypothesis that iNO is selective for the pulmonary vasculature (secondary endpoint).
In particular, the INOT22 protocol studied consecutive children undergoing cardiac catheterization that were prospectively enrolled at 16 centers in the US and Europe. Inclusion criteria: 4 weeks to 18 years of age, pulmonary hypertension diagnosis, i.e. either idiopathic pulmonary hypertension (IPAH) or related to congenital heart disease (CHD) (repaired or unrepaired) or cardiomyopathy, with pulmonary vascular resistance index (PVRI)>3 u−m^2. Later amendments, as discussed herein, added an additional inclusionary criterion of a PCWP less than 20 mm Hg. Patients were studied under general anaesthesia, or with conscious sedation, according to the practice of the investigator. Exclusion criteria: focal infiltrates on chest X-ray, history of intrinsic lung disease, and/or currently taking PDE-5 inhibitors, prostacyclin analogues or sodium nitroprusside. The study involved supplemental O2 and NO for inhalation plus O2 in the evaluation of the reactivity of the pulmonary vasculature during acute pulmonary vasodilator testing. Consecutive children undergoing cardiac catheterization were prospectively enrolled at 16 centers in the US and Europe. […] A specific secondary endpoint was evaluated in study INOT22 to provide a more definitive evaluation.
The primary objective was to compare the response frequency with iNO and O2 vs. O2 alone; in addition, all subjects were studied with iNO alone. Patients were studied during five periods: Baseline 1, Treatment Period 1, Treatment Period 2, Baseline 2 and Treatment Period 3. All patients received all three treatments; treatment sequence was randomized by center in blocks of 4; in Period 1, patients received either NO alone or O2 alone, and the alternate treatment in Period 3. All patients received the iNO and O2 combination treatment in Period 2. Once the sequence was assigned, treatment was unblinded. Each treatment was given for 10 minutes prior to obtaining hemodynamic measurements, and the Baseline Period 2 was at least 10 minutes.

[2] = system: neonates with hypoxic respiratory failure; conditions: n=114, number (%), cited from earlier work
[3] = system: term and near-term neonates with pulmonary hypertension and hypoxic respiratory failure; conditions: Inhaled NO n=97; number of patients (%); cited from earlier work

Molecule	SVRI Change From Baseline, Mean [1] [WU · m^2]	SVRI Change From Baseline, Median [1] [WU · m^2]	SVRI Change From Baseline, Minimum [1] [WU · m^2]	SVRI Change From Baseline, maximum [1] [WU · m^2]	Ratio PVRI/SVRI Change from Baseline, Maximum [1]	Ratio PVRI/SVRI Change from Baseline, Mean [1]	Ratio PVRI/SVRI Change from Baseline, Median [1]	Ratio PVRI/SVRI Change from Baseline, Minimum [1]	Ratio PVRI/SVRI Percent Change from Baseline, Maximum [1] [%]	Ratio PVRI/SVRI Percent Change from Baseline, Mean [1] [%]	Ratio PVRI/SVRI Percent Change from Baseline, Median [1] [%]	Ratio PVRI/SVRI Percent Change from Baseline, Minimum [1] [%]	Ratio PVRI/SVRI Post Treatment, Maximum [1]	Ratio PVRI/SVRI Post Treatment, Mean [1]	Ratio PVRI/SVRI Post Treatment, Median [1]	Ratio PVRI/SVRI Post Treatment, Minimum [1]	SVRI Post-treatment, Mean [1] [WU · m^2]	SVRI Post-treatment, Median [1] [WU · m^2]	SVRI Post-treatment, Minimum [1] [WU · m^2]	SVRI Post-treatment, maximum [1] [WU · m^2]	also measured
O=O [O2, oxygen]	1.3	1.0	−18.1	17.7	2.0	−0.1	−0.1	−1.6	93.3	−19.3	−21.3	−122.7	1.4	0.4	0.4	0.0	18.9	17.1	3.9	43.6	
nitric oxide [NO]	−0.2	0.2	−12.5	12.7	1.6	−0.1	0.0	−4.4	294.1	−6.2	−13.8	−256.1	2.2	0.5	0.3	−1.2	17.8	15.4	3.3	50.7	Death or ECMO ([2]; 100% O2 with 20 ppm NO for up to 14 days, primary end point): 52 (46%); Death ([2]; 100% O2 with 20 ppm NO): 16 (14%); ECMO ([2]; 100% O2 with 20 ppm NO): 44 (39%); Adverse Reaction: Atelectasis [3]: 7 (6.5%); Adverse Reaction: Bilirubinemia [3]: 7 (6.5%); Adverse Reaction: Hypokalemia [3]: 9 (8.3%); Adverse Reaction: Hypotension [3]: 6 (5.6%); Adverse Reaction: Thrombocytopenia [3]: 16 (14.8%); tolerability [1]: well-tolerated; tolerability ([1]; listed as iNO): well-tolerated in most patients
